Like-named read-outs stand apart in the source and are kept apart here.
Assays:
SK-CO-1 cells = experiment: SK-CO-1 CTG proliferation assay (120 h) (CRC, G12V); assay type: cell-based; details: SK-CO-1 cells (CRC, G12V), CTG 120 h
Outline: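 SK-CO-1 colorectal cells (KRAS G12V), 500 per well in EMEM + 10% FCS, dosed with compound the day after seeding and grown 120 h at 37 °C. Viability by CellTiter-Glo luminescence as percent of DMSO control; IC50 from four-parameter non-linear regression.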

KRAS (G12D)::SOS1 = KRAS (G12D)::SOS1 (Homo sapiens (Human), UniProt P01116, G12D); experiment: KRAS::SOS1 AlphaScreen binding assay, KRAS G12D
Outline: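 Compounds (up to 100 μM, eleven fivefold dilutions in duplicate) were incubated 30 min with KRAS 1-169 (10 nM, or 7.5 nM for G12C), GST-SOS1 564-1049 (5 nM for G12D/G12C, 10 nM for others) and 10 μM GDP in PBS buffer with BSA and Tween. Donor/acceptor beads were then added for 60 min at room temperature, and IC50 came from a 4-parameter fit of the AlphaScreen signal.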

AsPC-1 cells = experiment: AsPC-1 CTG proliferation assay (120 h) (pancreatic cancer, G12D); assay type: cell-based
Outline: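 AsPC-1 cells (KRAS G12D), 2000/well in RPMI with 10% FCS, seeded overnight, then treated with compound for 120 h at 37 °C. Viability by CellTiter-Glo luminescence as percent of DMSO control. IC50 from a four-parameter non-linear fit.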

Sequence of KRAS (G12D)::SOS1 (P01116 other isoform, or with tags, fused parts or gaps G12D): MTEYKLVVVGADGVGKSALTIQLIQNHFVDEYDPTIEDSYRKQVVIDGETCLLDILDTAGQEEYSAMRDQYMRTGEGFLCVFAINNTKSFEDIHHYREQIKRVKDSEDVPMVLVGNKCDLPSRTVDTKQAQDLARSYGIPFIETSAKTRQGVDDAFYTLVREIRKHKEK

| Structure (SMILES) | IC50 (SK-CO-1 cells; Homo sapiens) [nM] | IC50 (KRAS (G12D)::SOS1) [nM] | IC50 (AsPC-1 cells; Homo sapiens, ASPC1) [nM] | IC50 (SK-CO-1 cells) [nM] | IC50 (AsPC-1 cells) [nM] |
| --- | --- | --- | --- | --- | --- |
| C[C@H](Oc1nc(-c2noc3c2CCC[C@@]32CCCc3sc(N)c(C#N)c32)nc(N2CCN(C)C3(CC3)C2)c1Cl)[C@@H]1C[C@@H](F)CN1C [II-176] | 2060 | 2 | 851 | – | – |
| C[C@H](Oc1cc(-n2ccc(C(=O)N[C@H]3CCOC3)n2)nc(-c2noc3c2CCC[C@@]32CCCc3sc(N)c(C#N)c32)n1)[C@@H]1CCCN1C [II-193] | – | 1 | – | 3 | 176 |
| C[C@H](Oc1cc(N2CCN(C)C3(CCOC3)C2)nc(-c2noc3c2CCC[C@@]32CCCc3sc(N)c(C#N)c32)n1)[C@@H]1C[C@@H](F)CN1C (some centres unmarked) [II-151] | 1360 | 2 | 714 | – | – |
| C[C@H](Oc1cc(-c2ccn(C)n2)nc(-c2noc3c2CCC[C@@]32CCCc3sc(N)c(C#N)c32)n1)[C@@H]1C[C@H](F)CN1C [II-144] | 130 | 14 | 7100 | – | – |
| C[C@H](Oc1cc(-n2cc3ccn(C[C@H]4CCOC4)c(=O)c3n2)nc(-c2noc3c2CCC[C@@]32CCCc3sc(N)c(C#N)c32)n1)[C@@H]1CCCN1C [II-204] | 14 | 2 | 508 | – | – |
| C[C@H](Oc1cc([C@H]2CCNC2)nc(-c2noc3c2CCC[C@@]32CCCc3sc(N)c(C#N)c32)n1)[C@@H]1CCCN1C [II-163] | 649 | 1 | 935 | – | – |
| C[C@H](Oc1cc(-n2ccc(C3(O)COC3)n2)nc(-c2noc3c2CCC[C@@]32CCCc3sc(N)c(C#N)c32)n1)[C@@H]1CCCN1C [II-189] | 45 | 2 | 1150 | – | – |
| CO[C@H]1CCN(C)[C@@H]1[C@H](C)Oc1cc(-n2ccc(C(=O)N(C)C3COC3)n2)nc(-c2noc3c2CCC[C@@]32CCCc3sc(N)c(C#N)c32)n1 [II-199] | 17 | 1 | 446 | – | – |
| C[C@H](Oc1cc(-n2nccc2-c2ccncc2)nc(-c2noc3c2CCC[C@@]32CCCc3sc(N)c(C#N)c32)n1)[C@@H]1CCCN1C [II-131] | 90 | 6 | 3520 | – | – |
| CO[C@H]1CCN(C)[C@@H]1[C@H](C)Oc1cc(-n2ccc(C(=O)N[C@@H]3CCOC3)n2)nc(-c2noc3c2CCC[C@@]32CCCc3sc(N)c(C#N)c32)n1 [II-197] | 4 | 1 | 226 | – | – |
| C[C@H](Oc1cc(-n2ccc(C(=O)N[C@@H]3CCOC3)n2)nc(-c2noc3c2CCC[C@@]32CCCc3sc(N)c(C#N)c32)n1)[C@@H]1CCCN1C [II-192] | 4 | 1 | 305 | – | – |
| C[C@@H]1CN(c2nc(-c3noc4c3CCC[C@@]43CCCc4sc(N)c(C#N)c43)nc(O[C@@H](C)[C@@H]3C[C@@H](F)CN3C)c2F)CC2(CC2)N1 [II-158] | 374 | 2 | 256 | – | – |
| C[C@H](Oc1cc(-n2ccc(-c3cn(C4CCOCC4)nn3)n2)nc(-c2noc3c2CCC[C@@]32CCCc3sc(N)c(C#N)c32)n1)[C@@H]1CCCN1C [II-210] | 3 | 1 | 210 | – | – |
| C[C@H](Oc1cc(-n2cncn2)nc(-c2onc3c2CCC[C@@]32CCCc3sc(N)c(C#N)c32)n1)[C@@H]1CCCN1C [I-18] | 236 | 3 | 7070 | – | – |
| CO[C@H]1CCN(C)[C@@H]1[C@H](C)Oc1cc(N2CCN(C)C3(CC3)C2)nc(-c2noc3c2CCC[C@@]32CCCc3sc(N)c(C#N)c32)n1 [II-186] | 880 | 1 | 38 | – | – |
| C[C@H](Oc1cc(-n2ccc(-c3cn(CC4(C)COC4)nn3)n2)nc(-c2noc3c2CCC[C@@]32CCCc3sc(N)c(C#N)c32)n1)[C@@H]1CCCN1C [II-213] | 7 | 1 | 275 | – | – |
| COCCNC(=O)c1ccn(-c2cc(O[C@@H](C)[C@@H]3[C@@H](OC)CCN3C)nc(-c3noc4c3CCC[C@@]43CCCc4sc(N)c(C#N)c43)n2)n1 [II-200] | 5 | 1 | 340 | – | – |
| C[C@H](Oc1cc(N2CC3COCC(C2)N3)nc(-c2noc3c2CCC[C@@]32CCCc3sc(N)c(C#N)c32)n1)[C@@H]1CCCN1C [II-160] | 6850 | 2 | 3220 | – | – |

| Structure (SMILES) | IC50 (SK-CO-1 cells; Homo sapiens) [nM] | IC50 (KRAS (G12D)::SOS1) [nM] | IC50 (AsPC-1 cells; Homo sapiens, ASPC1) [nM] | IC50 (SK-CO-1 cells) [nM] | IC50 (AsPC-1 cells) [nM] |
| --- | --- | --- | --- | --- | --- |
| C[C@H](Oc1nc(-c2noc3c2CCC[C@@]32CCCc3sc(N)c(C#N)c32)nc(N2CCNC3(CC3)C2)c1F)[C@@H]1C[C@@H](F)CN1C [II-155] | 263 | 1 | 11 | – | – |
| C[C@H](Oc1cc(C2=CCNCC2)nc(-c2noc3c2CCC[C@@]32CCCc3sc(N)c(C#N)c32)n1)[C@@H]1CCCN1C [II-164] | 287 | 1 | 483 | – | – |
| C[C@H]1CNCCCN1c1cc(-c2ccn(C)n2)nc(-c2noc3c2CCC[C@@]32CCCc3sc(N)c(C#N)c32)n1 [II-140] | 292 | 22 | 21600 | – | – |
| C[C@H](Oc1cc(N2CCNC3(CC3)C2)nc(-c2noc3c2CCC[C@@]32CCCc3sc(N)c(C#N)c32)n1)[C@@H]1C[C@@H](F)CN1C [II-165] | 529 | 1 | 25 | – | – |
| COCCNC(=O)c1ccn(-c2cc(O[C@@H](C)[C@@H]3CCCN3C)nc(-c3noc4c3CCC[C@@]43CCCc4sc(N)c(C#N)c43)n2)n1 [II-195] | 4 | 1 | 282 | – | – |
| C[C@H](Oc1cc(-n2cnc(C(=O)N(C)C)c2)nc(-c2noc3c2CCC[C@@]32CCCc3sc(N)c(C#N)c32)n1)[C@@H]1CCCN1C [II-126] | 137 | 7 | 10200 | – | – |
| C[C@H](Oc1cc(-n2cc3c(n2)CNC3)nc(-c2noc3c2CCC[C@@]32CCCc3sc(N)c(C#N)c32)n1)[C@@H]1CCCN1C [II-168] | 154 | 1 | 778 | – | – |
| C[C@H](O)Cn1ncc(-c2cc(O[C@@H](C)[C@@H]3CCCN3C)nc(-c3noc4c3CCC[C@@]43CCCc4sc(N)c(C#N)c43)n2)n1 [II-134] | 225 | 4 | 9670 | – | – |
| CO[C@H]1CCN(C)[C@@H]1[C@H](C)Oc1cc(-n2ccc(C(=O)N[C@H]3CCOC3)n2)nc(-c2noc3c2CCC[C@@]32CCCc3sc(N)c(C#N)c32)n1 [II-198] | 3 | 1 | 143 | – | – |
| C[C@H](Oc1cc(-n2cc3ccn([C@H]4CCOC4)c(=O)c3n2)nc(-c2noc3c2CCC[C@@]32CCCc3sc(N)c(C#N)c32)n1)[C@@H]1CCCN1C [II-202] | 6 | 1 | 380 | – | – |
| CO[C@@H]1C[C@@H]([C@H](C)Oc2cc(N3CCNC4(CC4)C3)nc(-c3noc4c3CCC[C@@]43CCCc4sc(N)c(C#N)c43)n2)N(C)C1 [II-187] | 457 | 1 | 30 | – | – |
| C[C@H](Oc1cc(-n2ccc(-c3cnccn3)n2)nc(-c2noc3c2CCC[C@@]32CCCc3sc(N)c(C#N)c32)n1)[C@@H]1CCCN1C [II-130] | 29 | 2 | 1080 | – | – |
| C[C@H](Oc1cc(N2CCN(C)C3(COC3)C2)nc(-c2noc3c2CCC[C@@]32CCCc3sc(N)c(C#N)c32)n1)[C@@H]1C[C@@H](F)CN1C [II-148] | 779 | 1 | 376 | – | – |
| C[C@H](Oc1cc(-n2cc3ccn([C@@H](C)c4ccccn4)c(=O)c3n2)nc(-c2noc3c2CCC[C@@]32CCCc3sc(N)c(C#N)c32)n1)[C@@H]1CCCN1C [II-205] | 31 | 8 | 1310 | – | – |
| C[C@H](Oc1cc(N2CCNC[C@]23CCOC3)nc(-c2onc3c2CCC[C@@]32CCCc3sc(N)c(C#N)c32)n1)[C@@H]1CCCN1C [I-12] | 710 | 1 | 235 | – | – |
| C[C@H]1CNCCCN1c1nc(-c2onc3c2CCC[C@@]32CCCc3sc(N)c(C#N)c32)cc(C(F)(F)F)n1 [I-15] | – | 348 | – | – | – |
| C[C@H](Oc1cc(-c2cn(C)nn2)nc(-c2onc3c2CCC[C@@]32CCCc3sc(N)c(C#N)c32)n1)[C@@H]1CCCN1C [I-16] | – | 2 | – | – | – |
